Measurements from ChEMBL document CHEMBL1149290, “Discovery of tetralin carboxamide growth hormone secretagogue receptor antagonists via scaffold manipulation” (J Med Chem, 2004).

What was measured:
[1] = Clearance in rat; format: ADME, organism-based; conditions: in vivo
[2] = target: Muscarinic acetylcholine receptor; assay: Inhibition of muscarinic receptor; format: protein assay, Homo sapiens
[3] = target: Voltage-gated inwardly rectifying potassium channel KCNH2 (Homo sapiens, UniProt Q12809); assay: Inhibition of hERG receptor; format: toxicity
Voltage-gated inwardly rectifying potassium channel KCNH2, sequence (Q12809 whole entry): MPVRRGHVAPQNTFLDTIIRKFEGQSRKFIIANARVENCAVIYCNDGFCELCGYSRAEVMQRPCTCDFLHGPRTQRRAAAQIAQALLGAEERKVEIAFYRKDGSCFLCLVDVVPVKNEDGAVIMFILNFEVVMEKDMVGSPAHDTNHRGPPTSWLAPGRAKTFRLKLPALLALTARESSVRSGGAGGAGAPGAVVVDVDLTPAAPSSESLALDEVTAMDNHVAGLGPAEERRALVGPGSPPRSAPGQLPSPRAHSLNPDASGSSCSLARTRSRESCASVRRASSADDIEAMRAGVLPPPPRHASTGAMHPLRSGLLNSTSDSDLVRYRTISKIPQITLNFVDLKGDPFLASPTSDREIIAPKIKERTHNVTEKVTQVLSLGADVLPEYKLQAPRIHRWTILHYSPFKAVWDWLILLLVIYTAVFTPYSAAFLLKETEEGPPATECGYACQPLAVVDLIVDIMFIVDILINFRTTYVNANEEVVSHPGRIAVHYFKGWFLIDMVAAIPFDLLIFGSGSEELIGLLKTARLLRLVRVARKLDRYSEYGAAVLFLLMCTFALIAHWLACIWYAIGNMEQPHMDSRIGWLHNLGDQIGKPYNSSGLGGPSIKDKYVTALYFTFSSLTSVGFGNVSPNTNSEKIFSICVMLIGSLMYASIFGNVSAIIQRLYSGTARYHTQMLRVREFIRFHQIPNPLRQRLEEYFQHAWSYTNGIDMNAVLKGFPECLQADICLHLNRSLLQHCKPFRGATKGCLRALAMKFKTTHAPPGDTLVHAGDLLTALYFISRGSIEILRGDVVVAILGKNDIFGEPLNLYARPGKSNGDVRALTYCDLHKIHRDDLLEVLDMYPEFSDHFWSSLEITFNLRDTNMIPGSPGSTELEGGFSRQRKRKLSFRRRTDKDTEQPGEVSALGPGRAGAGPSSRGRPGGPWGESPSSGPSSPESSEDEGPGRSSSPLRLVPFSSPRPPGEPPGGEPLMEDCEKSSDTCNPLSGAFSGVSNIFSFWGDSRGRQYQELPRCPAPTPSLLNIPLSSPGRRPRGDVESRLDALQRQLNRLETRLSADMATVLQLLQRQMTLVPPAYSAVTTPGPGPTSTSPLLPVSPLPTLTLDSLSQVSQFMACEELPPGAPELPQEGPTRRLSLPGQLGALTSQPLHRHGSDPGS

[4] = Inhibition of adrenergic receptor; design: species or system Homo sapiens
[5] = Oral bioavailability in rat; format: ADME, organism-based; conditions: in vivo
[6] = Inhibition of histaminergic receptor
[7] = Inhibition of dopaminergic receptor; design: species or system Homo sapiens
[8] = target: Growth hormone secretagogue receptor type 1 (Homo sapiens, UniProt Q92847); assay: Binding affinity to GHSR
Growth hormone secretagogue receptor type 1, sequence (Q92847 whole entry): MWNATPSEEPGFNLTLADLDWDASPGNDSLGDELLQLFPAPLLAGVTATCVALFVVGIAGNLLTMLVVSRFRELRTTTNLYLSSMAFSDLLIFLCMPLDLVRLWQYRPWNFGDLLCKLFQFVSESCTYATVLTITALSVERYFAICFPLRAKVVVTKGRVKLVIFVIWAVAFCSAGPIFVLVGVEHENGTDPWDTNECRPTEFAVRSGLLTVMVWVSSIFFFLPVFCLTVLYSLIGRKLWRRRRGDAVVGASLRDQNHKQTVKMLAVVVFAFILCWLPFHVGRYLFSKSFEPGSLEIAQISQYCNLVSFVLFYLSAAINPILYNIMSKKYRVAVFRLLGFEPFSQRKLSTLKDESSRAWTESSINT

SMILES	clearance [1]	bioavailability [5]	IC50 [8]	other results
CCN(CC)c1ccc(NC(=O)c2c(-c3c(Cl)cccc3Cl)noc2C)cc1	61.7 mL/min/kg			
CCN(CC)c1ccc(NC(=O)C2(NC(=O)OCC(C)C)CCc3ccccc3C2)cc1 (racemic)			0.011 µM (antagonist)	
CCN(CC)c1ccc(NC(=O)C2(NC(=O)OCC(C)C)CCc3cccc(Cl)c3C2)cc1 (racemic)		3.8%	0.002 µM (antagonist)	

Continued, in another order:

clearance [1]	bioavailability [5]	IC50 [8]	SMILES	other results
21.7 mL/min/kg	19%		CCN(CC)c1ccc(NC(=O)C2(N(C)C(=O)OCC(C)C)CCc3cccc(OC)c3C2)cc1 (racemic)	IC50 [2]: > 33 µM; IC50 [3]: 6.1 µM; IC50 [4]: > 33 µM; IC50 [6]: > 33 µM; IC50 [7]: > 33 µM
		2.7 µM (antagonist)	CCN(CC)c1ccc(NC(=O)C2CCc3ccccc3C2)cc1 (racemic)	
		0.12 µM (antagonist)	CCN(CC)c1ccc(NC(=O)C2(NC(=O)OC(C)(C)C)CCc3ccccc3C2)cc1 (racemic)	
